Laboratory results as given in PMC6435784, “Gut Microbiota-Based Pharmacokinetics and the Antidepressant Mechanism of Paeoniflorin” (Frontiers in Pharmacology, 2019).

What was measured:
[1] = Brain distribution of paeoniflorin and benzoic acid in rats; assay type: in vivo, rat; details: at 2 h after oral administration of paeoniflorin 20 mg/kg
[2] = Excretion of paeoniflorin in rats (urine, feces, bile); assay type: in vivo, rat; details: normal rats, oral paeoniflorin 20 mg/kg, excreted form = labelled substance, n = 6
Protocol: Then, urine samples and feces samples were collected at 0, 6, 12, 24, 48, 72, and 96 h.

[3] = as above; assay type: in vivo, rat; details: normal rats, paeoniflorin 20 mg/kg, excreted form = labelled substance, n = 6
[4] = Pharmacokinetics of paeoniflorin in normal SD rats (plasma, LC-MS/MS); assay type: in vivo, rat; details: normal rats, oral paeoniflorin 20 mg/kg, plasma analyte = labelled substance
Protocol: Chromatography separation was performed using an XSS T3 column (3.5 μm, 2.1 mm × 100 mm, Waters, Milford, MA, United States) with the column temperature maintained at 40°C at a flow rate of 0.4 mL/min. […] The gradient was as follows: 25% eluent B for 2 min; 25–85% B from 2 to 4 min; 85–25% B from 4 to 5 min and held at 25% from 5 to 7 min. The autosampler temperature was set to 4°C. Mass spectrometry was carried out using multiple reaction monitoring mode (MRM). […] The nebulizing gas flow rate was 2.8 L/min, the drying gas flow rate was 10 L/min, and the heating gas flow rate was 10 L/min. […] Plasma samples were immediately stored at 4°C until analysis. The method validation assays were carried out in terms of specificity, linearity, sensitivity, accuracy, precisions, recovery, matrix effect and stability. […] Statistical analyses were conducted using two-way ANOVA and Student’s t-test with GraphPad Prism Version 5 (GraphPad Software, La Jolla, CA, United States). The data are expressed as the means ± standard deviation. […] DAS 3.0 was used to calculate the plasma pharmacokinetic parameters.

[5] = Pharmacokinetics of paeoniflorin in pseudo-germ-free (PGF) rats; assay type: in vivo; details: SD, rat, in vivo, oral paeoniflorin 20 mg/kg, plasma analyte = labelled substance; for AUC(0-t) / Cmax: po, 20 mg/kg
Protocol: Chromatography separation was performed using an XSS T3 column (3.5 μm, 2.1 mm × 100 mm, Waters, Milford, MA, United States) with the column temperature maintained at 40°C at a flow rate of 0.4 mL/min. […] The gradient was as follows: 25% eluent B for 2 min; 25–85% B from 2 to 4 min; 85–25% B from 4 to 5 min and held at 25% from 5 to 7 min. The autosampler temperature was set to 4°C. Mass spectrometry was carried out using multiple reaction monitoring mode (MRM). […] The nebulizing gas flow rate was 2.8 L/min, the drying gas flow rate was 10 L/min, and the heating gas flow rate was 10 L/min. […] The remaining fourteen SD rats were orally administered saline equivalently. Two days after administration, pharmacokinetic experiments were performed. […] Plasma samples were immediately stored at 4°C until analysis. Statistical analyses were conducted using two-way ANOVA and Student’s t-test with GraphPad Prism Version 5 (GraphPad Software, La Jolla, CA, United States). The data are expressed as the means ± standard deviation. […] DAS 3.0 was used to calculate the plasma pharmacokinetic parameters.

[6] = tested on: carboxylesterase; test: Effect of BNPP inhibition on the transformation of paeoniflorin in intestinal culture system; assay type: cell-based, rat gut microbiota; details: 24 h, 1 mg/mL paeoniflorin
Protocol: The colon contents of six rats were pooled, and 5 g of the sample was transferred to a ziplock bag and then mixed thoroughly with anaerobic medium (100 mL). After mixing completely, the cultures were stored at 37°C and preincubated for 1 h. Then, 10 μL of paeoniflorin (100 mg/mL) was added to fresh rat intestinal microbial culture (990 μL) under anaerobic conditions of N2, with a final concentration of 1 mg/mL of paeoniflorin in the culture system ([Hattori et al., 1988]). The inactivated bacteria solution was used as a negative control. Cultures were incubated at 37°C for 0, 2, 6, 12, and 24 h, respectively. After terminated the reaction with 3 volumes of acetonitrile, samples were vortexed for 30 s and then centrifuged at 16,162 g for 5 min. A total of 100 μL of the supernatant were transferred to a centrifuge tube, centrifuged at 16,162 g for 5 min and filtered through a 0.45 μm microporous membrane. Finally, 5 μL of the filtrate solution was collected for analysis.
Consistent with the above steps, the carboxylesterase inhibitor BNPP (0.1, 1, 3, and 10 mM) was added to the culture system at different concentrations with a final concentration of 1 mg/mL paeoniflorin. Then, the cultures were incubated at 37°C for 0, 2, 6, 12, and 24 h. The intestinal culture system without BNPP was used as a control group.

[7] = tested on: depressed rats; test: Chronic unpredictable stress depression model, sucrose preference test; assay type: in vivo, rat; details: 10 mg/kg, after 2 weeks of drug treatment, compared with model group, n = 8
Protocol: Forty rats were randomly divided into the following groups (n = 8): the normal control group, the model control group, the fluoxetine group (10 mg/kg), the paeoniflorin low-dose group (10 mg/kg), and the paeoniflorin high-dose group (20 mg/kg). Except for the blank control group, the groups were randomly exposed to two stressors, including behavioral constraints, ice water swimming, electric shock, cold stimulation, clip tail, wet bedding, light/dark reversed, shaking, foods and water deprivation, continuously for 8 weeks to establish a chronic unpredictable stress model. The sucrose preference test was performed at 0 and 14 days after administration.

[8] = PGF rats (antibiotic pretreated)

**Q.** Which “detection in SD rat brains” value [1] does the source give for `O=C(O)c1ccccc1` [Benzoic acid, benzoic acid] here?
**A.** considerable number

**Q.** And the “96-h cumulative excretion in feces” value [2]?
**A.** 0.15%

**Q.** And the “96-h cumulative excretion in urine” value [2]?
**A.** 42.13%

**Q.** And the “cumulative excretion rate in bile for 60 h” value [3]?
**A.** No benzoic acid was detected

**Q.** What about the AUC(0-t) ([4]; SD, rat, in vivo, po, 20 mg/kg, Figures 2C, 3B, 3C, read-out: AUC(0-t) (unit inferred)) of the same compound?
**A.** 151 ng·h/mL

**Q.** What about the Cmax ([4]; SD, rat, in vivo, po, 20 mg/kg, Figures 2C, 3B, 3C, read-out: Cmax (unit inferred)) of the same compound?
**A.** 55.6 ng/mL

**Q.** And the AUC(0-t) ([4]; SD, rat, in vivo, po, 20 mg/kg, n = 6, read-out: AUC (0-t))?
**A.** 151 ng·h/mL

**Q.** What about the Cmax ([4]; SD, rat, in vivo, po, 20 mg/kg, n = 6, read-out: Cmax) of the same compound?
**A.** 55.6 ± 12.1 ng/mL

**Q.** And the Cmax ([4]; SD, rat, in vivo, po, 20 mg/kg, read-out: Cmax)?
**A.** 55.6 ng/mL

**Q.** What about the AUC(0-inf) ([4]; SD, rat, in vivo, n = 6) of the same compound?
**A.** 162 ± 40.1 ng·h/mL

**Q.** What about the Tmax ([4]; SD, rat, in vivo, n = 6) of the same compound?
**A.** 47.5 ± 11.3 min

**Q.** What about the “AUC(0-t)” value ([4]; n = 6) of the same compound?
**A.** 151.24 ± 29.59 ng·h/mL

**Q.** What about the AUC(0-t) ([5]; PGF rats (antibiotic pretreated), read-out: AUC (0-t)) of the same compound?
**A.** 94.8 ± 19.8 ng·h/mL

**Q.** And the Cmax ([5]; PGF rats (antibiotic pretreated), read-out: Cmax)?
**A.** 27.6 ± 2.63 ng/mL

**Q.** What about the AUC(0-t) ([5]; PGF rats, Figures 3B, 3C, read-out: AUC(0-t) (unit inferred)) of the same compound?
**A.** 68.5 ng·h/mL

**Q.** What about the Cmax ([5]; PGF rats, Figures 3B, 3C, read-out: Cmax (unit inferred)) of the same compound?
**A.** 25.4 ng/mL

**Q.** And the AUC(0-inf) [5, 8]?
**A.** 97.2 ± 20.2 ng·h/mL

**Q.** And the Tmax [5, 8]?
**A.** 35.8 ± 14.3 min

**Q.** For `O=[N+]([O-])c1ccc(OP(=O)(O)Oc2ccc([N+](=O)[O-])cc2)cc1` [BNPP, bis-p-nitrophenyl phosphate], which “inhibition rate of the conversion of paeoniflorin to benzoic acid” value (“inhibition rate” below) ([6]; BNPP 0.1 mM) is on record?
**A.** 8.2%

**Q.** What about the “inhibition rate” value ([6]; BNPP 1 mM) of the same compound?
**A.** 46.8%

**Q.** What about the “inhibition rate” value ([6]; BNPP 3 mM) of the same compound?
**A.** 63.7%

**Q.** What about the “inhibition rate” value ([6]; BNPP 10 mM) of the same compound?
**A.** 74.9%

**Q.** With `CNCCC(Oc1ccc(C(F)(F)F)cc1)c1ccccc1` (centres unmarked) [fluoxetine, reference compound] as the compound, how does the sucrose preference value [7] read?
**A.** significantly higher than that of the model control group
